This is an account of results in patent publication US6903132B2, “Non-peptide GnRH agents, pharmaceutical compositions and methods for their use” (Agouron Pharmaceuticals, Inc., priority 2002, dated 2005).

Each structure is given as a SMILES string.

Experiment in all cases: Radioligand binding assay: inhibition of binding of 125I-GnRH-A to GnRH receptors (membranes)
For one assay, the target named is T1, mouse GnRH receptors (Mus musculus, UniProt Q01776).
T1 construct: expressed in transfected cells; host or cells: HEK 293
T1 sequence (Q01776 1-327): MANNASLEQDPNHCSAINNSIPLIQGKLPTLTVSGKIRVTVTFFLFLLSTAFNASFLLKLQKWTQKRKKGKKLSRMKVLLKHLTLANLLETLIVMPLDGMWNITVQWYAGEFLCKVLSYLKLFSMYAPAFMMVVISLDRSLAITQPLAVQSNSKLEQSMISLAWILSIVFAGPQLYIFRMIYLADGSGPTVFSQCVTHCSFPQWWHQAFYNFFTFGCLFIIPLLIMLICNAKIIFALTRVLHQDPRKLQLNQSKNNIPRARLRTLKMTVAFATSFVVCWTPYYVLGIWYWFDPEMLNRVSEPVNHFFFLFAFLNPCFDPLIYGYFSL
As to conditions: Mouse GnRH receptor; competition with 125I-GnRH-A; Ki calculated from IC50 (Cheng et al.). The essentials:
(§1)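 Membranes from HEK 293 expressing mouse or human receptor, or rat pituitaries, incubated 1 h at RT with ~0.04–0.06 nM ¹²⁵I-[des-Gly¹⁰,D-Ala⁶]GnRH ethylamide and competitor (0.1–10,000 nM) in HEPES pH 7.4 with MgCl2, EDTA, BSA. Filtration onto PEI-soaked GF/C filters, scintillation counting; Ki from IC50 by Cheng–Prusoff.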

The target of another assay is T2, rat GnRH receptor (Rattus norvegicus, UniProt P30969).
T2 construct: rat pituitaries (Pel Freez Biologicals, Rogers, Ark.) are homogenized in buffer A; tissue Pel Freez Biologicals; host or cells: rat pituitaries
T2 sequence (P30969 1-327): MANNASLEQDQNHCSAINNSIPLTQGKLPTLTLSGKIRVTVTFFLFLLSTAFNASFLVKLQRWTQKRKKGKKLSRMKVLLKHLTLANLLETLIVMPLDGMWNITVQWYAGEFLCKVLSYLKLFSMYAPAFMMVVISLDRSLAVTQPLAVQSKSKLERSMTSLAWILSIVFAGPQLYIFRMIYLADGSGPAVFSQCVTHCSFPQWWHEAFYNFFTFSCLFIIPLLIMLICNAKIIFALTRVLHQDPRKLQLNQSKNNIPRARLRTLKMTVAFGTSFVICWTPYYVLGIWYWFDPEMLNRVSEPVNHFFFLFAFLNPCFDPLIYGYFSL
The conditions noted are these: competition with 125I-GnRH-A, Ki calculated from IC50 (Cheng et al.). The method, boiled down: as §1

Another assay deals with T3, human GnRH receptors (Homo sapiens, UniProt P30968).
T3 construct: expressed in transfected cells; host or cells: HEK 293
T3 sequence (P30968 1-328): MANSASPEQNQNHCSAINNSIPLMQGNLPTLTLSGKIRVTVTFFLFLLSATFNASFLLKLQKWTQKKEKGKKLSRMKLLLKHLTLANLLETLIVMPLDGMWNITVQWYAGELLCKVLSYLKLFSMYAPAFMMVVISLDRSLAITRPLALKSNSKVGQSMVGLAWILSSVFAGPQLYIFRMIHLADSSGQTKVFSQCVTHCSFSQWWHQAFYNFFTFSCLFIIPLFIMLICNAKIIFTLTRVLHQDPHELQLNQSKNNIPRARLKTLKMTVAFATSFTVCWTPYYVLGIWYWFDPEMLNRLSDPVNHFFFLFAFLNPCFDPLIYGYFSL
As to conditions: Human GnRH receptor; competition with 125I-GnRH-A; Ki calculated from IC50 (Cheng et al.). The method, boiled down: as §1

As for `COc1c(C(C)C)cc(Cl)c(C)c1Cc1ccc(C(=O)NNc2cc(C)c3c(C)nn(C)c3n2)o1` [Example J24, 5-(3-chloro-5-isopropyl-6-methoxy-2-methylbenzyl)-N′-(1,3,4-trimethyl-1H-pyrazolo[3,4-b]pyridin-6-yl)-2-furohydrazide], the values for the Ki on mouse GnRH receptors, on rat GnRH receptor and at human GnRH receptors were 400 nM, 1130 nM and 130 nM, respectively.
Consider `Cc1cc(C)c(C)c(Cc2ccc(C(=O)NNc3cc(C)c4c(C)nn(C)c4n3)o2)c1C` [Example J12, 5-(2,3,5,6-Tetramethylbenzyl)-N′-(1,3,4-trimethyl-1H-pyrazolo[3,4-b]pyridin-6-yl)-2-furohydrazide], for which the Ki (in general, a dissociation constant, usually derived from enzyme kinetics or from competition with a known ligand) at mouse GnRH receptors is 850 nM; on rat GnRH receptor, 1200 nM; at human GnRH receptors, 260 nM.
For the molecule `Cc1cc2c(cc1Oc1oc(C(=O)NNc3cc(C)c4c(C)nn(C)c4n3)cc1Br)C(C)(C)CCC2(C)C` [Example F3, 4-Bromo-5-[(3,5,5,8,8-pentamethyl-5,6,7,8-tetrahydro-2-naphthalenyl)oxy]-N′-[1,3,4-trimethyl-1H-pyrazolo[3,4-b]pyridin-6-yl)-2-furohydrazide], the Ki is 136 nM at mouse GnRH receptors, 535 nM on rat GnRH receptor and 80 nM on human GnRH receptors.
In the same order, the values of `Cc1cc2c(cc1Oc1ccc(C(=O)NNc3cc(C)c4c(C)nn(C)c4n3)o1)C(C)(C)OC2` [Example N2, 5-(3,3,6-Trimethyl-1,3-dihydro-isobenzofuran-5-yloxy)-furan-2-carboxylic acid N′-(1,3,4-trimethyl-1H-pyrazolo[3,4-b]pyridin-6-yl)-hydrazide] are 22 nM, 86 nM and 28 nM.
For `Cc1cc(NNC(=O)c2ccc(Oc3ccc4c(c3)C(C)(C)CCC4(C)C)o2)nc2c1c(C)nn2C` [Example F4, 5-[(5,5,8,8-tetramethyl-5,6,7,8-tetrahydro-2-naphthalenyl)oxy]-N′-(1,3,4-trimethyl-1H-pyrazolo[3,4-b]pyridin-6-yl)-2-furohydrazide], in that order: 450 nM, 384 nM and 126 nM.
`Cc1cc2c(c(Br)c1Oc1ccc(C(=O)NNc3cc(C)c4c(C)nn(C)c4n3)o1)C(C)(C)CCC2` [Example I11, 5-(1-Bromo-3,8,8-trimethyl-5,6,7,8-tetrahydro-naphthalen-2-yloxy)-furan-2-carboxylic acid N′-(1,3,4-trimethyl-1H-pyrazolo[3,4-b]pyridin-6-yl)-hydrazide]: the Ki at mouse GnRH receptors is 250 nM; at rat GnRH receptor it was 790 nM; on human GnRH receptors, 170 nM.
In the case of `Cc1ccc(C(C)(C)C)cc1Cc1ccc(C(=O)NNc2ccc3ccccc3n2)o1` [Example B3, 5-[5-(tert-butyl)-2-methylbenzyl]-N′-(2-quinolinyl)-2-furohydrazide], the Ki on mouse GnRH receptors is 84 nM; at rat GnRH receptor it was 65 nM; on human GnRH receptors, 95 nM.
For `Cc1cc2c(cc1Oc1ccc(C(=O)NNc3cc(C)c4c(C)nn(C)c4n3)o1)C(c1ccccc1)CCC2` (stereo not drawn) [Example I18, 5-(3-Methyl-8-phenyl-5,6,7,8-tetrahydro-naphthalen-2-yloxy)-furan-2-carboxylic acid N′-(1,3,4-trimethyl-1H-pyrazolo[3,4-b]pyridin-6-yl)-hydrazide], the Ki at mouse GnRH receptors was 59 nM; on rat GnRH receptor it was 154 nM; at human GnRH receptors it was 58 nM.
For `Cc1cc(NNC(=O)c2ccc(Oc3cc4c(cc3Cl)NCCC4(C)C)o2)nc2c1c(C)nn2C` [Example I26, 5-(7-Chloro-4,4-dimethyl-1,2,3,4-tetrahydro-quinolin-6-yloxy)-furan-2-carboxylic acid N′-(1,3,4-trimethyl-1H-pyrazolo[3,4-b]pyridin-6-yl)-hydrazide], in that order: 14 nM, 25 nM and 8.3 nM.
As to `COc1cc2c(c(C)c1Oc1ccc(C(=O)NNc3cc(C)c4c(C)nn(C)c4n3)o1)C(C)(C)CCC2(C)C` [Example I25, 5-(3-Methoxy-1,5,5,8,8-pentamethyl-5,6,7,8-tetrahydro-naphthalen-2-yloxy)-furan-2-carboxylic acid N′-(1,3,4-trimethyl-1H-pyrazolo[3,4-b]pyridin-6-yl)-hydrazide], the figures for the Ki at mouse GnRH receptors, on rat GnRH receptor and on human GnRH receptors were 38 nM, 59 nM and 31 nM, respectively.
For the molecule `Cc1cc2c(cc1Oc1ccc(C(=O)NNc3cc(C)c4c(C)nn(C)c4n3)o1)C(C(C)C)C(C)C2(C)C` (stereo not drawn) [Example I2, 5-(3-lsopropyl-1,1,2,6-tetramethyl-indan-5-yloxy)-furan-2-carboxylic acid N′-(1,3,4-trimethyl-1H-pyrazolo[3,4-b]pyridin-6-yl)-hydrazide], the results for the Ki at mouse GnRH receptors, at rat GnRH receptor and on human GnRH receptors were 3.6 nM, 4.2 nM and 2.4 nM, respectively.
For `Cc1cc(C(F)(F)F)cc(NNC(=O)c2ccc(Cc3cc4c(cc3C)C(C)(C)CCC4(C)C)o2)n1` [Example C13, N′-[6-methyl-4-(trifluoromethyl)-2-pyridinyl]-5-[(3,5,5,8,8-pentamethyl-5,6,7,8-tetrahydro-2-naphthalenyl)methyl]-2-furohydrazide], in that order: 130 nM, 240 nM and 220 nM.
With `Cc1cc(NNC(=O)c2ccc(Cc3cc4c(cc3Cl)C(C)(C)CCC4(C)C)o2)nc2c1c(C)nn2C` [Example C4, 5-[(3-chloro-5,5,8,8-tetramethyl-5,6,7,8-tetrahydro-2-naphthalenyl)methyl]-N′-(1,3,4-trimethyl-1H-pyrazolo[3,4-b]pyridin-6-yl)-2-furohydrazide], the Ki on mouse GnRH receptors was 8.2 nM; at rat GnRH receptor, 22 nM; at human GnRH receptors, 1.3 nM.
For `COc1c(Oc2ccc(C(=O)NNc3cc(C)c4c(C)nn(C)c4n3)o2)c(C)cc2c1C(C)(C)CCC2` [Example I10, 5-(1-Methoxy-3,8,8-trimethyl-5,6,7,8-tetrahydro-naphthalen-2-yloxy)-furan-2-carboxylic acid N′-(1,3,4-trimethyl-1H-pyrazolo[3,4-b]pyridin-6-yl)-hydrazide], the figures for the inhibitory constant (Ki) on mouse GnRH receptors, at rat GnRH receptor and at human GnRH receptors were 160 nM, 230 nM and 146 nM, respectively.
In the case of `Cc1cc2c(cc1Cc1ccc(C(=O)NNc3cc(C)c4c(C)nn(C)c4n3)o1)C(C)(C)CC2(C)C` [Example J15, 5-[(1,1,3,3,6-pentamethyl-2,3-dihydro-1H-inden-5-yl)methyl]-N-(1,3,4-trimethyl-1H-pyrazdo[3,4-b]Pyridin-6-yl)-2-furohydrazide], the Ki is 3.3 nM on mouse GnRH receptors, 2 nM at rat GnRH receptor and 0.9 nM at human GnRH receptors.
In the same order, the values of `Cc1ccc(C2CCCCC2)cc1Cc1ccc(C(=O)NNc2cc(C)c3c(C)nn(C)c3n2)o1` [Example J16, 5-(5-cyclohexyl-2-methylbenzyl)-N′-(1,3,4-trimethyl-1H-pyrazolo[3,4-b]pyridin-6-yl)-2-furohydrazide] are 233 nM, 122 nM and 97 nM.
`Cc1cc2c(c(Br)c1Oc1ccc(C(=O)NNc3cc(C)c4c(C)nn(C)c4n3)o1)C(C)(C)CCC2(C)C` [Example I8, 5-(1-Bromo-3,5,5,8,8-pentamethyl-5,6,7,8-tetrahydro-naphthalen-2-yloxy)-furan-2-carboxylic acid N′-(1,3,4-trimethyl-1H-pyrazolo[3,4-b]pyridin-6-yl)-hydrazide]: the Ki was 16 nM at mouse GnRH receptors, 29 nM at rat GnRH receptor and 6.3 nM at human GnRH receptors.
In the same order, the values of `Cc1cc(C)c(-c2ccccc2)cc1Cc1ccc(C(=O)NNc2cc(C)c3c(C)nn(C)c3n2)o1` [Example J18, 5-[(4,6-dimethyl[1,1′-biphenyl]-3-yl)methyl]-N′-(1,3,4-trimethyl-1H-pyrazolo[3,4-b]pyridin-6-yl)-2-furohydrazide] are 480 nM, 290 nM and 170 nM.
As for `Cc1ccc(C(C)(C)C)cc1Oc1ccc(C(=O)NNc2ccc3ccccc3n2)o1` [Example I17, 5-(5-tert-Butyl-2-methyl-phenoxy)-furan-2-carboxylic acid N′-quinolin-2-yl-hydrazide], the Ki on mouse GnRH receptors is 43 nM; on rat GnRH receptor, 50 nM; at human GnRH receptors, 70 nM.
